Results published in PMC4780864, “Family-wide Structural Analysis of Human Numb-Associated Protein Kinases” (Structure(London, England:1993), 2016).

Columns and labels:
Test in all cases: biochemical
BIKE = target: T1, BIKE (Homo sapiens, UniProt Q9NSY1); set-up: Thermal shift assay (DSF, SYPRO Orange), 2 uM kinase domain, mean delta Tm of triplicates versus DMSO; conditions: read-out: BIKE
T1 construct: gene BMP2K; catalytic domain-containing construct
Method: (§1) All measurements were performed in triplicate and mean values were reported for all compounds (Table S1). […] However, NAKs are often omitted from selectivity panels, including commercial screens.

MPSK1 = target: T2, MPSK1 (Homo sapiens, UniProt O75716); set-up: Thermal shift assay (DSF, SYPRO Orange), 2 uM kinase domain, mean delta Tm of triplicates versus DMSO; conditions: read-out: MPSK1
T2 construct: gene STK16; catalytic domain-containing construct
T2 sequence (O75716 whole entry, the tested form may be a part): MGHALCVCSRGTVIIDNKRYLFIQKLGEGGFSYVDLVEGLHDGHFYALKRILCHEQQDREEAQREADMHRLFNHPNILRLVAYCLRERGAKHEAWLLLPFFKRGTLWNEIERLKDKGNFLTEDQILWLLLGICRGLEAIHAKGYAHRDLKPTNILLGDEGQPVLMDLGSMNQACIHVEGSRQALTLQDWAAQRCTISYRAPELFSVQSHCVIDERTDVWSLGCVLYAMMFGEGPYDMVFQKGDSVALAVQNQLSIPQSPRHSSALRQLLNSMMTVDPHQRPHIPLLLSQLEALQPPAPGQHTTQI
Method: as §1

GAK = target: T3, GAK (Homo sapiens, UniProt O14976); set-up: Thermal shift assay (DSF, SYPRO Orange), 2 uM kinase domain, mean delta Tm of triplicates versus DMSO; conditions: read-out: GAK
T3 construct: catalytic domain-containing construct
T3 sequence (O14976 1-1311): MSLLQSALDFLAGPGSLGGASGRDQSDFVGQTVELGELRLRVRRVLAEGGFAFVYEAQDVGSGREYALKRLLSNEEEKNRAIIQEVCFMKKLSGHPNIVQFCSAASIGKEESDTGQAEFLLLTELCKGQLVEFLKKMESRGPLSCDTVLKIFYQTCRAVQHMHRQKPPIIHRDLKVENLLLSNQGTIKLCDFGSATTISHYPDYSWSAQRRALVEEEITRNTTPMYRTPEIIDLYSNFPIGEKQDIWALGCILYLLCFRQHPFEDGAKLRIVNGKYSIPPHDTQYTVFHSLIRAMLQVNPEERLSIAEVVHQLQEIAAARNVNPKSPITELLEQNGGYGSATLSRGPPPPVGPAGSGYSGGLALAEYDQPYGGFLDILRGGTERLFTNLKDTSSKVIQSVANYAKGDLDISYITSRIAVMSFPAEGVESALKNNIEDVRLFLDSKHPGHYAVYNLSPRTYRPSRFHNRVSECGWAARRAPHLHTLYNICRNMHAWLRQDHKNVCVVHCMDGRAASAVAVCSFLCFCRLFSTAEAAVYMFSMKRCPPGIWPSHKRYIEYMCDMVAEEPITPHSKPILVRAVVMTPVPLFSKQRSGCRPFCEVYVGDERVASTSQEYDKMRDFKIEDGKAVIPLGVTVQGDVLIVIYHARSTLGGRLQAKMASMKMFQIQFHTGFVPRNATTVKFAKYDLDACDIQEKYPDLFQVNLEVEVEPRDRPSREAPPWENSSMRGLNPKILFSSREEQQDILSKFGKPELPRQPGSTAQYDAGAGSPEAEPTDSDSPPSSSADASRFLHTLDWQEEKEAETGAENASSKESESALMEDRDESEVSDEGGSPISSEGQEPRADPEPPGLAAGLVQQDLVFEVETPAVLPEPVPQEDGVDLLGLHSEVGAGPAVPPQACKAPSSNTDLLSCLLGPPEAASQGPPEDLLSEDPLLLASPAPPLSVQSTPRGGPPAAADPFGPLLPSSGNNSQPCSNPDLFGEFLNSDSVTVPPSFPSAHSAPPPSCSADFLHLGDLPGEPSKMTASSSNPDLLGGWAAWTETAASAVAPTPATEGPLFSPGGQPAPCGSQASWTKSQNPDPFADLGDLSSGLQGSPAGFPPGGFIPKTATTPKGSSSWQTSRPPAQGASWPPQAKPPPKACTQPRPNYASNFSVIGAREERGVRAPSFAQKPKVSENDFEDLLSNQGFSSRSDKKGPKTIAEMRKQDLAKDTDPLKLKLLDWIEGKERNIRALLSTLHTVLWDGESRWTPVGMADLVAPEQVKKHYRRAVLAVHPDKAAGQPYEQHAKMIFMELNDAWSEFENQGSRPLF
Method: as §1

AAK1 = AAK1 (Homo sapiens, UniProt Q2M2I8); set-up: kinase domain; Thermal shift assay (DSF, SYPRO Orange), 2 uM kinase domain, mean delta Tm of triplicates versus DMSO; conditions: read-out: AAK1
Chain of AAK1 (Q2M2I8 27-365 limits assumed): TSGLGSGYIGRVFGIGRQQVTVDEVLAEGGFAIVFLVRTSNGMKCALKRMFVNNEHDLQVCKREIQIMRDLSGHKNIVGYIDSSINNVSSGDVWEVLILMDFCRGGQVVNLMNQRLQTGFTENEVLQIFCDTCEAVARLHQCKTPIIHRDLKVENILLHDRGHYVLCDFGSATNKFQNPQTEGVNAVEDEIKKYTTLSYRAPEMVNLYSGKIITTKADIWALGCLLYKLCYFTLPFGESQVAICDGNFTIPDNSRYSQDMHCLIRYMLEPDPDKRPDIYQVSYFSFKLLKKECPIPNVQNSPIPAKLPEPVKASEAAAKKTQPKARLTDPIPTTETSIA
Method: as §1

T1 sequence (Q9NSY1 whole entry, the tested form may be a part): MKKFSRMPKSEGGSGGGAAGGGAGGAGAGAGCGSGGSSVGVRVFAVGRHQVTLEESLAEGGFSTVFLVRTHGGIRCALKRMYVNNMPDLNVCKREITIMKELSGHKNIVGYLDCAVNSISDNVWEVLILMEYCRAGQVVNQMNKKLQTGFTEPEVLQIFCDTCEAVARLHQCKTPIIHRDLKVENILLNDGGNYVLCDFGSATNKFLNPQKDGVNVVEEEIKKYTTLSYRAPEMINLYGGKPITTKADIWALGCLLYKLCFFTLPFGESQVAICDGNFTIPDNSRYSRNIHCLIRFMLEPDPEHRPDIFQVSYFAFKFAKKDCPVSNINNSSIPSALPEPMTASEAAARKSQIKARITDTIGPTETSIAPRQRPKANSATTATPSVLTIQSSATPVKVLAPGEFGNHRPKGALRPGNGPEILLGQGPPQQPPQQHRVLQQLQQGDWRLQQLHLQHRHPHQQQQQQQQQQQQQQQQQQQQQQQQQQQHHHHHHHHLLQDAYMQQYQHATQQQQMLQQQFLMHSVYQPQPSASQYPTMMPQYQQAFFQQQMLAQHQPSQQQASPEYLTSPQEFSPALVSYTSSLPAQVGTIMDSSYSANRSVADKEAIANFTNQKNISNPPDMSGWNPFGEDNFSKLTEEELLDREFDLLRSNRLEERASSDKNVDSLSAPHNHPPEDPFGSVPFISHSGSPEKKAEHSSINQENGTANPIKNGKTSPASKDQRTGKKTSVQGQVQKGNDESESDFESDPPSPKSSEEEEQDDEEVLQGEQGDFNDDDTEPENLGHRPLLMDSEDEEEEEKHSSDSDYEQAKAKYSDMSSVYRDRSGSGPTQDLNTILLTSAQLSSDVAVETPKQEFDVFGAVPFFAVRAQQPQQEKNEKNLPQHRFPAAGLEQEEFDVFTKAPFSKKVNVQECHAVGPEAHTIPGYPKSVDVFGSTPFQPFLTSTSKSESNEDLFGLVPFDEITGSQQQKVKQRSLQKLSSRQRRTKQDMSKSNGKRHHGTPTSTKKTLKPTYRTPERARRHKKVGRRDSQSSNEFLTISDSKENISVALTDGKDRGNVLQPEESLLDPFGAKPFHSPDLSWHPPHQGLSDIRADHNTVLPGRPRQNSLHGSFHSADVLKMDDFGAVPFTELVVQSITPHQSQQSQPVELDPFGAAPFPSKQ

SMILES | ΔTm at 12.5 µM (BIKE) | ΔTm at 12.5 µM (MPSK1) | ΔTm at 12.5 µM (GAK) | ΔTm at 12.5 µM (AAK1)
CC(C)(C)c1nc(-c2cccc(NS(=O)(=O)c3c(F)cccc3F)c2F)c(-c2ccnc(N)n2)s1 [Dabrafenib] | 2.95 °C | 4.06 °C | 9.06 °C | 2.23 °C
O=C(Nc1c[nH]nc1-c1nc2ccc(CN3CCOCC3)cc2[nH]1)NC1CC1 [AT9283] | 15.6 °C | 9.49 °C | 4.52 °C | 12.1 °C
CS(=O)(=O)N1CCN(Cc2cc3nc(-c4cccc5[nH]ncc45)nc(N4CCOCC4)c3s2)CC1 [Pictilisib] | 4.67 °C | 5.92 °C | – | 2.3 °C
Cc1ccc(Nc2nccc(N(C)c3ccc4c(C)n(C)nc4c3)n2)cc1S(N)(=O)=O [Pazopanib] | 7.25 °C | 7.31 °C | 2.72 °C | 3.85 °C
COc1cc(OC2CCN(C)CC2)ccc1Nc1ncc2c(n1)n(C1CCCC1)c(=O)n2C [AZ3146] | 6.16 °C | 4.12 °C | 6.52 °C | 5.37 °C
C[C@]1(O)C[C@@H](c2nc(-c3ccc4ccc(-c5ccccc5)nc4c3)c3c(N)nccn32)C1 [Linsitinib] | 0.903 °C | 0.73 °C | -0.6 °C | 0.277 °C
COc1cc2c(N3CCN(C(=O)Nc4ccc(OC(C)C)cc4)CC3)ncnc2cc1OCCCN1CCCCC1 [Tandutinib] | 1.76 °C | 1.21 °C | 0.06 °C | 0.57 °C
CCn1c(=O)c(-c2cc[nH]n2)cc2c(C)nc(N)nc21 [Voxtalisib] | 0.73 °C | 0.32 °C | 0.99 °C | 0.657 °C
Cc1ccc(F)c(NC(=O)Nc2ccc(-c3cccc4[nH]nc(N)c34)cc2)c1 [Linifanib] | 5.72 °C | 5.04 °C | 2.49 °C | 1.96 °C
CN1CCN(c2ccc3nc(-c4c(N)c5c(F)cccc5[nH]c4=O)[nH]c3c2)CC1 [Dovitinib] | 0.12 °C | 0.593 °C | -0.0367 °C | 0.263 °C
Cc1ccc(NC(=O)c2ccc(CN3CC[C@H](N(C)C)C3)c(C(F)(F)F)c2)cc1Nc1nccc(-c2cncnc2)n1 [Bafetinib] | 1.1 °C | 2.51 °C | 4.57 °C | 1.07 °C
Cc1cnc(Nc2ccc(F)cc2Cl)nc1-c1c[nH]c(C(=O)N[C@H](CO)c2cccc(Cl)c2)c1 [VX-11E] | 0.147 °C | 0.627 °C | -1.45 °C | -0.203 °C
COc1cc2c(Oc3ccc4[nH]c(C)cc4c3F)ncnc2cc1OCCCN1CCCC1 [Cediranib] | 1.58 °C | 1.03 °C | 0.667 °C | 0.543 °C
COc1cc2ncnc(Nc3ccc(F)c(Cl)c3)c2cc1NC(=O)/C=C/CN1CCCCC1 [Dacomitinib] | 5.85 °C | 0.97 °C | 7.28 °C | 3.8 °C
COc1cc(Nc2c(C#N)cnc3cc(OCCCN4CCN(C)CC4)c(OC)cc23)c(Cl)cc1Cl [Bosutinib] | 5.88 °C | 1.25 °C | 9.42 °C | 3.03 °C
CNC(=O)c1nn(C)c2c1C(C)(C)Cc1cnc(Nc3ccc(N4CCN(C)CC4)cc3)nc1-2 [Milciclib] | 7.73 °C | 10.1 °C | 10.6 °C | 5.61 °C
N#CCNC(=O)c1ccc(-c2ccnc(Nc3ccc(N4CCOCC4)cc3)n2)cc1 [Momelotinib] | 15 °C | 11.1 °C | 7.03 °C | 14.6 °C
O=C1NC(=O)[C@@H](c2cn3c4c(cccc24)CCC3)[C@@H]1c1c[nH]c2ccccc12 [Tivantinib] | 0.697 °C | 0.87 °C | -0.823 °C | 0.46 °C
CCCS(=O)(=O)Nc1ccc(F)c(C(=O)c2c[nH]c3ncc(-c4ccc(Cl)cc4)cc23)c1F [Vemurafenib] | 4.24 °C | 5.18 °C | 2.66 °C | 2.06 °C
CO[C@@H](C(=O)N1Cc2[nH]nc(NC(=O)c3ccc(N4CCN(C)CC4)cc3)c2C1)c1ccccc1 [Danusertib] | 1.68 °C | 2.36 °C | 0.59 °C | 1.74 °C
CC[C@@H]1C(=O)N(C)c2cnc(Nc3ccc(C(=O)NC4CCN(C)CC4)cc3OC)nc2N1C1CCCC1 [BI 2536] | – | – | 4.13 °C | –
CCN(CCO)CCCOc1ccc2c(Nc3cc(CC(=O)Nc4cccc(F)c4)[nH]n3)ncnc2c1 [AZD1152-HQPA] | 2.02 °C | 0.953 °C | -0.54 °C | –

Continued, values first:

ΔTm at 12.5 µM (BIKE) | ΔTm at 12.5 µM (MPSK1) | ΔTm at 12.5 µM (GAK) | ΔTm at 12.5 µM (AAK1) | SMILES
0.31 °C | 0.92 °C | -0.547 °C | 0.0767 °C | COc1cccc2cc(-c3nc([C@H]4CC[C@H](C(=O)O)CC4)n4ncnc(N)c34)[nH]c12 [OSI-027]
0.39 °C | 0.763 °C | -0.483 °C | 0.317 °C | Cc1c(Cn2c(C)nc3c(C(=O)O)cc(N4CCOCC4)cc32)cccc1C(F)(F)F [GSK2636771]
0.5 °C | 1.43 °C | -0.347 °C | 0.26 °C | Cc1cc(C(C)Nc2ccccc2)c2nc(N3CCOCC3)cc(=O)n2c1 (centres unmarked) [TGX-221]
0.9 °C | 0.0567 °C | 0.343 °C | 0.0767 °C | O=C(Nc1ccc2[nH]nc(-c3ccncc3)c2c1)[C@@H]1CCN(CC(=O)N2CCN(c3ccc(-c4ncccn4)cc3)CC2)C1 [SCH772984]
0.227 °C | 0.463 °C | -0.347 °C | 0.187 °C | Cc1cc(C(=O)NOCCO)c(Nc2ccc(I)cc2F)n(C)c1=O [AZD8330]
1.07 °C | 1.67 °C | 7.37 °C | 1.45 °C | Cn1c(Nc2ccc(C(F)(F)F)cc2)nc2cc(Oc3ccnc(-c4ncc(C(F)(F)F)[nH]4)c3)ccc21 [RAF265]
15.9 °C | 8.25 °C | 4.05 °C | 9.95 °C | O=C(Nc1cccc(Nc2ncc(Br)c(NCCc3cnc[nH]3)n2)c1)N1CCCC1 [BX-912]
0.917 °C | 0.407 °C | 2.77 °C | 0.713 °C | C#Cc1cccc(Nc2ncnc3cc(OC)c(OCCCCCCC(=O)NO)cc23)c1 [CUDC-101]
19.1 °C | 6.45 °C | 9.49 °C | 17.8 °C | Cn1cc(-c2[nH]c3cc(NC(=O)[C@H](N)C4CCCCC4)cc4c3c2C=NNC4=O)cn1 [PF-00477736]
1.11 °C | 3.53 °C | 0.0467 °C | 0.69 °C | CC(C)(C)c1cnc(CSc2cnc(NC(=O)C3CCNCC3)s2)o1 [SNS-032]
14.2 °C | 0.11 °C | 0.24 °C | 6.88 °C | Oc1c2ccccc2c2c3c(cccc13)N=N2 [SP600125]
0.12 °C | 0.947 °C | -0.753 °C | 0.04 °C | COc1ccc(-c2ccc3c(N4CCOC[C@@H]4C)nc(N4CCOC[C@@H]4C)nc3n2)cc1CO [AZD8055]
